pIC50: −log10 of the molar value.
Columns and labels:
Assay type in all cases: biochemical
Pim-1 = Pim-1 (Homo sapiens (Human), UniProt P11309); experiment: Pim-1 kinase assay; conditions: 1 mM ATP; read-out: Pim1 IC50
Procedure: Supplementation of the STOP buffer with beads and stopping the reactions were done under reduced light. Prior to the stopping reactions STOP buffer with beads was pre-incubated for 1 h in the dark at room temperature. After stopping the reactions, plates were incubated for 1 h in the dark at room temperature before reading on a PHERAstar FS plate reader (BMG Labtech) under reduced light.

Pim-3 = Pim-3 (Homo sapiens (Human), UniProt Q86V86); experiment: Pim-3 kinase assay; conditions: 1 mM ATP; read-out: Pim3 IC50
Procedure: Pim-1 and Pim-3 kinase assays-20 μL reactions were run in white 384 well polystyrene plates dotted with 0.8 μL compound/DMSO in the assay buffer (50 mM Tris, pH 7.5, 0.01% Tween-20, 5 mM MgCl2, 0.01% BSA, 5 mM DTT), containing 0.05 μM Biotin-labeled BAD peptide substrate (AnaSpec 62269), 1 mM ATP, and […] (Pim-1, Invitrogen PV3503) or […] (Pim-3, Millipore 14-738) enzyme for 1 h at 25° C. Reactions were stopped by addition of 10 μL STOP Buffer (150 mM Tris, pH=7.5, 150 mM NaCl, 75 mM EDTA, 0.01% Tween-20, 0.3% BSA) supplemented with Phospho-Bad (Ser112) Antibody (Cell Signaling 9291) diluted 666-fold, and Streptavidin donor beads (PerkinElmer 6760002) along with Protein-A acceptor beads (PerkinElmer 6760137) at 15 μg/mL each. Supplementation of the STOP buffer with beads and stopping the reactions were done under reduced light. Prior to the stopping reactions STOP buffer with beads was pre-incubated for 1 h in the dark at room temperature. After stopping the reactions, plates were incubated for 1 h in the dark at room temperature before reading on a PHERAstar FS plate reader (BMG Labtech) under reduced light.

Pim-2 = Pim-2 (Homo sapiens (Human), UniProt Q9P1W9); experiment: Pim-2 kinase assay; conditions: 1 mM ATP; read-out: Pim2 IC50
Procedure: Pim-2 kinase assay-20 μL reactions were run in white 384 well polystyrene plates dotted with 0.8 μL compound/DMSO in the assay buffer (50 mM Tris, pH 7.5, 0.01% Tween-20, 5 mM MgCl2, 0.01% BSA, 5 mM DTT), containing 0.05 μM Fluorescein-labeled CREBtide peptide substrate (Invitrogen PV3508), 1 mM ATP, and 1 nM enzyme (Invitrogen PV3649) for 2 h at 25° C. Reactions were stopped by addition of 10 μL TR-FRET Dilution Buffer (Invitrogen PV3574) with 30 mM EDTA and 1.5 nM LanthaScreen Tb-CREB pSer133 antibody (Invitrogen PV3566). After 30 min. incubation at room temperature, plates were read on a PHERAstar FS plate reader (BMG Labtech).
Although the above in vitro assays are conducted at 1 mM ATP compounds can also be evaluated for potency and in vitro activity against PIM targets utilizing Km conditions, where the concentration of ATP is set to the Km value and the assay is more sensitive to PIM inhibition activity.

Sequence of Pim-1 (P11309 whole entry): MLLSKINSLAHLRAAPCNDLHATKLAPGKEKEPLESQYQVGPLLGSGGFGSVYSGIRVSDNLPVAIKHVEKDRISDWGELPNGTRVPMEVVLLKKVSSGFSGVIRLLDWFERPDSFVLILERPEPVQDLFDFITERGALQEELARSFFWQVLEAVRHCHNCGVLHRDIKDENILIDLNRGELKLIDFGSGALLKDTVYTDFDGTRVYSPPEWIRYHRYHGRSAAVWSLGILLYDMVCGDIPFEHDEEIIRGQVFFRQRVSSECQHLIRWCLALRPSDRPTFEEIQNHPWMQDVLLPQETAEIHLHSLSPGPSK
Sequence of Pim-2 (Q9P1W9 whole entry): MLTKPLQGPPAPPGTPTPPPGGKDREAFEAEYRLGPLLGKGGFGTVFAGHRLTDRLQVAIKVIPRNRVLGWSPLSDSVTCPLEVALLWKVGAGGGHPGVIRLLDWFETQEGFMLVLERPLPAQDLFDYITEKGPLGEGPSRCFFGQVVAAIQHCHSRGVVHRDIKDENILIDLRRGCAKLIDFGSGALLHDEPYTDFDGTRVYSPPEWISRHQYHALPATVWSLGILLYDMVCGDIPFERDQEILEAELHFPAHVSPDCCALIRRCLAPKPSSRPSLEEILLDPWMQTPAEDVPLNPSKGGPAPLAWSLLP

SMILES	pIC50 (Pim-1)	pIC50 (Pim-3)	pIC50 (Pim-2)
C[C@@H]1C[C@H](N)CN(c2c(NC(=O)c3ccc(F)c(-c4c(F)cc(OC5CCCOC5)cc4F)n3)cnc3c2CCC3O)C1 (single isomer, unassigned) [70 (Diastereoisomer 2)]	≥ 7.00	≥ 7.00	≥ 7.00
CC(C)(O)c1cc(F)c(-c2nc(C(=O)Nc3cnc4c(c3N3C[C@@H](N)C[C@@H](C(F)(F)F)C3)CCC4O)ccc2F)c(F)c1 (single isomer, unassigned) [72 (Diastereoisomer 1)]	≥ 7.00	≥ 7.00	≥ 7.00
CC(C)(O)c1cc(F)c(-c2nc(C(=O)Nc3cnc4c(c3N3C[C@@H](N)C[C@@H](C(F)(F)F)C3)CCC4O)ccc2F)c(F)c1 (single isomer, unassigned) [72 (Diastereoisomer 2)]	≥ 7.00	≥ 7.00	≥ 7.00
Nc1sc(-c2c(F)cccc2F)nc1C(=O)Nc1cnc2c(c1N1CC[C@H](O)[C@@H](N)C1)CCC2 (single isomer, unassigned) [Example 24, 5-Amino-N-{4-[3,4-trans-3-amino-4-hydroxypiperidin-1-yl]-6,7-dihydro-5H-cyclopenta[b]pyridin-3-yl}-2-(2,6-difluorophenyl)-1,3-thiazole-4-carboxamide]	≥ 7.00	≥ 7.00	< 5.70
Nc1sc(-c2c(F)cccc2F)nc1C(=O)Nc1cnc2c(c1N1CC[C@@H](O)[C@H](N)C1)CCC2 (single isomer, unassigned) [Example 25, 5-Amino-N-{4-[3,4-trans-3-amino-4-hydroxypiperidin-1-yl]-6,7-dihydro-5H-cyclopenta[b]pyridin-3-yl}-2-(2,6-difluorophenyl)-1,3-thiazole-4-carboxamide]	≥ 7.00	≥ 7.00	≥ 7.00
Nc1sc(-c2c(F)cccc2F)nc1C(=O)Nc1cnc2c(c1N1CC[C@@H](O)[C@@H](N)C1)CCC2 (single isomer, unassigned) [Example 26]	≥ 7.00	≥ 7.00	< 5.70
Nc1sc(-c2c(F)cccc2F)nc1C(=O)Nc1cnc2c(c1N1CC[C@H](O)[C@H](N)C1)CCC2 (single isomer, unassigned) [Example 27, 5-Amino-N-{4-[3.4-cis-3-amino-4-hydroxypiperidin-1-yl]-6,7-dihydro-5H-cyclopenta[b]pyridin-3-yl}-2-(2,6-difluorophenyl)-1,3-thiazole-4-carboxamide]	≥ 7.00	≥ 7.00	≥ 7.00
Nc1sc(-c2c(F)cccc2F)nc1C(=O)Nc1cnc2ccsc2c1N1CC[C@@H](O)[C@H](N)C1 (single isomer, unassigned) [Example 29, 5-Amino-N-{7-[3,4-trans-3-amino-4-hydroxypiperidin-1-yl]thieno[3,2-b]pyridin-6-yl}-2-(2,6-difluorophenyl)-1,3-thiazole-4-carboxamide]	≥ 7.00	≥ 7.00	6.00 to 7.00
Nc1sc(-c2c(F)cccc2F)nc1C(=O)Nc1cnc2ccsc2c1N1CC[C@H](O)[C@H](N)C1 (single isomer, unassigned) [Example 30, 5-Amino-N-{7-[3.4-cis-3-amino-4-hydroxypiperidin-1-yl]thieno[3,2-b]pyridin-6-yl}-2-(2,6-difluorophenyl)-1,3-thiazole-4-carboxamide]	≥ 7.00	≥ 7.00	6.00 to 7.00
Nc1sc(-c2c(F)cccc2F)nc1C(=O)Nc1cnc2ccccc2c1N1CCC[C@H](N)C1 [Example 1, 5-Amino-N-{4-[(3S)-3-aminopiperidin-1-yl]quinolin-3-yl}-2-(2,6-difluorophenyl)-1,3-thiazole-4-carboxamide]	≥ 7.00	≥ 7.00	6.56
N[C@H]1CCCN(c2c(NC(=O)c3csc(-c4c(F)cccc4F)n3)cnc3ccccc23)C1 [Example 2, N-{4-[(3S)-3-Aminopiperidin-1-yl]quinolin-3-yl}-2-(2,6-difluorophenyl)-1,3-thiazole-4-carboxamide]	< 7.40	< 7.40	< 5.70
Nc1sc(-c2c(F)cccc2F)nc1C(=O)Nc1cnc2sccc2c1N1CCC[C@H](N)C1 [Example 3, 5-Amino-N-{4-[(3S)-3-aminopiperidin-1-yl]thieno[2,3-b]pyridin-5-yl}-2-(2,6-difluorophenyl)-1,3-thiazole-4-carboxamide]	≥ 7.00	≥ 7.00	≥ 7.00
N[C@H]1CCCN(c2c(NC(=O)c3csc(-c4c(F)cccc4F)n3)cnc3sccc23)C1 [Example 4, N-{4-[(3S)-3-Aminopiperidin-1-yl]thieno[2,3-b]pyridin-5-yl}-2-(2,6-difluorophenyl)-1,3-thiazole-4-carboxamide]	≥ 7.00	≥ 7.00	< 5.70
Nc1sc(-c2c(F)cccc2F)nc1C(=O)Nc1cnc2ccsc2c1N1CCC[C@H](N)C1 [Example 5, 5-Amino-N-{7-[(3S)-3-aminopiperidin-1-yl]thieno[3,2-b]pyridin-6-yl}-2-(2,6-difluorophenyl)-1,3-thiazole-4-carboxamide]	≥ 7.00	≥ 7.00	≥ 7.00
N[C@H]1CCCN(c2c(NC(=O)c3csc(-c4c(F)cccc4F)n3)cnc3ccsc23)C1 [Example 6, N-{7-[(3S)-3-Aminopiperidin-1-yl]thieno[3,2-b]pyridin-6-yl}-2-(2,6-difluorophenyl)-1,3-thiazole-4-carboxamide]	≥ 7.00	≥ 7.00	< 5.70
Nc1sc(-c2c(F)cccc2F)nc1C(=O)Nc1cnc2[nH]ccc2c1N1CCC[C@H](N)C1 [Example 7, 5-Amino-N-{4-[(3S)-3-aminopiperidin-1-yl]-1H-pyrrolo[2,3-b]pyridin-5-yl}-2-(2,6-difluorophenyl)-1,3-thiazole-4-carboxamide]	≥ 7.00	≥ 7.00	≥ 7.00
N[C@H]1CCCN(c2c(NC(=O)c3csc(-c4c(F)cccc4F)n3)cnc3[nH]ccc23)C1 [Example 8, N-{4-[(3S)-3-Aminopiperidin-1-yl]-1H-pyrrolo[2,3-b]pyridin-5-yl}-2-(2,6-difluorophenyl)-1,3-thiazole-4-carboxamide]	≥ 7.00	≥ 7.00	< 5.70
Nc1sc(-c2c(F)cccc2F)nc1C(=O)Nc1cnc2c(c1N1CCC[C@H](N)C1)CCO2 [Example 9, 5-Amino-N-{4-[(3S)-3-aminopiperidin-1-yl]-2,3-dihydrofuro[2,3-b]pyridin-5-yl}-2-(2,6-difluorophenyl)-1,3-thiazole-4-carboxamide]	≥ 7.00	≥ 7.00	≥ 7.00
N[C@H]1CCCN(c2c(NC(=O)c3csc(-c4c(F)cccc4F)n3)cnc3c2CCO3)C1 [Example 10, N-{4-[(3S)-3-Aminopiperidin-1-yl]-2,3-dihydrofuro[2,3-b]pyridin-5-yl}-2-(2,6-difluorophenyl)-1,3-thiazole-4-carboxamide]	≥ 7.00	≥ 7.00	6.00 to 7.00
N[C@H]1CCCN(c2c(NC(=O)c3ccc(F)c(-c4c(F)cccc4F)n3)cnc3c2CCO3)C1 [Example 11, N-{4-[(3S)-3-Aminopiperidin-1-yl]-2,3-dihydrofuro[2,3-b]pyridin-5-yl}-6-(2,6-difluorophenyl)-5-fluoropyridine-2-carboxamide]	≥ 7.00	≥ 7.00	6.00 to 7.00
Nc1cc(F)c(-c2c(F)cccc2F)nc1C(=O)Nc1cnc2c(c1N1CCC[C@H](N)C1)CCO2 [Example 12, 3-Amino-N-{4-[(3S)-3-aminopiperidin-1-yl]-2,3-dihydrofuro[2,3-b]pyridin-5-yl}-6-(2,6-difluorophenyl)-5-fluoropyridine-2-carboxamide]	≥ 7.00	≥ 7.00	≥ 7.00
N[C@H]1CCCN(c2c(NC(=O)c3csc(-c4c(F)cccc4F)n3)cnc3c2CCC3)C1 [Example 13, N-{4-[(3S)-3-Aminopiperidin-1-yl]-6,7-dihydro-5H-cyclopenta[b]pyridin-3-yl}-2-(2,6-difluorophenyl)-1,3-thiazole-4-carboxamide]	≥ 7.00	≥ 7.00	< 5.70
